The test system of data set [1] is UM-SCC-22B cells. Description: Cell uptake and blocking of [18F]FP-Met-pep1. The class given is cell-based, human. As to the method:
(§1) For cell uptake measurement, UM-SCC-22B cells were seeded into a 24-well plate at a density of 1×10^5 cells per well and incubated with 18.5 kBq (0.5 μCi)/well of [^18F]FP-Met-pep1 at 37°C for 15, 30 and 60 min. Tumor cells were then washed twice with cold PBS and harvested by adding 250 μl of 0.1 N NaOH. Internalization assay was preformed similarly to the procedure described above. After 15, 30 and 60 min incubation of UM-SCC-22B cells with [^18F]FP-Met-pep1 at 37°C, the cells were washed twice with cold PBS and then incubated for 1 min with acid-washing-buffer (50 mM glycine, 0.1 M NaCl, pH = 2.8) to remove surface bound radioactive ligand. Thereafter, the cells were washed twice with cold PBS and harvested by adding 250 μl of 0.1 N NaOH. The blocking assay was preformed similarly to the procedure described above except that the unlabeled c-Met binding peptide was added into the wells (500 μg/well) and incubated for 15 min at 37°C before adding [^18F]FP-Met-pep1. For efflux experiment, all UM-SCC-22B cells in a 24-well plate were initially incubated with 18.5 kBq (0.5 μCi)/well of [^18F]FP-Met-pep1 at 37°C for 1 hour. […] The cell suspensions were collected and measured in a gamma counter and the cell uptake, internalization and efflux were expressed as the percentage of the added dose (%AD) after decay correction to EOB. […]

Data set [2] can be described thus: Ex vivo biodistribution (gamma-counting). The class given is in vivo, mice. The following applies: male, athymic nu/nu, mouse, iv, total radioactivity, 30 min after injection, mean ± SD, n = 4. The protocol: (§2) The human head and neck squamous carcinoma (HNSCC) cell line UM-SCC-22B (obtained from the University of Michigan) was used in this study. The cells were maintained in DMEM supplemented with 10% fetal bovine serum (FBS), 1% glutamine, 100 unit/ml penicillin, and […] streptomycin (Invitrogen, CA). Subcutaneous UM-SCC-22B tumor model was established in 4 to 6 weeks old male athymic nu/nu mice (Harlan Laboratories). Typically, 5 × 10^6 cells suspended in 50 μl of PBS were injected in the right or left front shoulder. Tumor growth was followed by caliper measurements of perpendicular diameters of the tumor. The tumor volume was estimated by the formula: tumor volume = a×b^2 /2, where a and b were the tumor length and width, respectively, in millimeters. Small animal PET studies were performed when the tumor volume reached 100 to 200 mm^3.
After microPET imaging, the blood of mice bearing UM-SCC-22B tumor xenografts was drawn from the orbital sinus, then mice were sacrificed by cervical dislocation and selected organs were excised. Blood, tumor, and major organs tissues were collected and weighed (wet weight). The radioactivity in each tissue was measured using a gamma-counter (Packard Instrument). Distribution of activity was calculated as percentage of injected dose per gram of organ (%ID/g). For each mouse, the radioactivity of the tissue samples was calibrated against a known aliquot of the injected dose and normalized to a body mass of 30 g. Values were expressed as mean ± SD for a group of four animals.

Data set [3] deals with UM-SCC-22B cells. Description: Efflux experiment. The class given is cell-based, human. The note with it: UM-SCC-22B cells loaded 1 h at 37°C, then serum-free DMEM. The protocol:
as §1

The subject of data set [4] is UM-SCC-22B tumor-bearing mice. As to the kind of experiment: MicroPET imaging, ROI quantification. The data set is classed as in vivo. The protocol: as §2
(§3) To perform a microCT scan by a high-resolution Inveon MicroCT scanner (Siemens Medical Solutions) before microPET scan, an anesthetized nude mouse bearing UM-SCC-22B tumor was mounted on a turntable bed that could be moved automatically in the axial direction. Whole body CT acquisition parameters were as follows: voltage 70 kVp, current 400 μA, angular sampling 1° per projection for a full 360° scan, and effective pixel size 58 μm. Scan time was approximately 12 min. The image was reconstructed in real-time by a modified Feldkamp cone bean algorithm with a Shepp-Logan filter and appropriate center offset determined prior to scanning. PET scans were performed using an Inveon microPET scanner (Siemens Medical Solutions). Tumor-bearing mice were anesthetized using isoflurane/O2 (1.5–2% v/v) and intravenously injected with 3.7 MBq (100 μCi) of [^18F]FP-Met-pep1 in a volume of 100 μl saline. For blocking experiments, [^18F]FP-Met-pep1 was co-injected with 500 μg of unlabeled Met-pep1 peptide. Each group contained four mice. The images were reconstructed by a three-dimensional ordered subsets expectation maximization (3D-OSEM) algorithm with maximum a posteriori (MAP) algorithm and the frame rates were 10 × 30s, 5 × 60s, 5 × 120s and 10 × 240s, and no correction was applied for attenuation or scatter. Static images at 1 h time point were also acquired as 10-min static images for region of interest (ROI) quantification. Image analysis was done using ASI Pro VMTM software. PET/CT images were co-registered and fused automatically with ASI software. For each microPET scan, three-dimensional ROIs were drawn over the tumor, liver, kidney, and muscle on decay-corrected whole-body coronal images. The average radioactivity concentration within a tumor or an organ was obtained from mean pixel values within the ROI volume, which were converted to counts per milliliter by using a pre-determined conversion factor.

A short description of data set [5]: MicroPET imaging, ROI quantification. The class given is in vivo, mice. The note with it: male, athymic nu/nu, mouse, iv, total radioactivity, 3.7 MBq i.v., mean ± SD, n = 4. As to the method:
as §2, §3

For data set [6], the system named is UM-SCC-22B cells. As to the kind of experiment: Internalization assay (acid wash). The following applies: 37°C, early phase, acid wash pH 2.8. The data set is classed as cell-based, human. The protocol:
as §1

Residues, ends and D or L forms follow the SMILES beside them. *: point of attachment. Propanoyl(2-F) = CC(F)C(=O)*

For the compound `CC(C)C[C@H](NC(=O)[C@@H](N)Cc1ccc(O)cc1)C(=O)N[C@@H](Cc1ccccc1)C(=O)N[C@@H](CO)C(=O)N[C@H](C(=O)N[C@@H](Cc1c[nH]cn1)C(=O)N[C@@H](Cc1c[nH]c2ccccc12)C(=O)N1CCC[C@H]1C(=O)N1CCC[C@H]1C(=O)N[C@@H](CC(C)C)C(=O)N[C@@H](CCCCNC(=O)C(C)F)C(=O)N[C@@H](C)C(=O)O)C(C)C` (some centres unmarked) [[^18F]FP-Met-pep1] (H-YLFSVHWPPLK(Propanoyl(2-F))A-OH), in the data set on UM-SCC-22B cells [1] (500 μg/well unlabeled Met-pep1 pre-incubated 15 min at 37°C), the “cell uptake in presence of unlabeled Met-pep1 (blocking)” value was “dramatic inhibition of cell uptake”. Further, the “cell uptake (percentage of added dose)” value with UM-SCC-22B cells [1] (18.5 kBq (0.5 μCi)/well, 37°C, 30 min incubation (peak), gamma counter, mean ± SD, triplicate wells) is on record as 34.52 ± 1.34%. In addition, the tissue uptake at 0.5 h in data set [2] (blood, 3.7 MBq, without blocking, read-out: blood tracer concentration) came out at 1.55 ± 0.48 %ID/g; in data set [2] (blood, with 500 μg unlabeled peptide, read-out: blood tracer concentration, after blocking), 2.85 ± 0.76 %ID/g; in data set [2] (kidney, 3.7 MBq, blocking state not clearly stated, read-out: kidney tracer accumulation (ex vivo)), 10.5 ± 0.53 %ID/g; in data set [2] (liver, 3.7 MBq, blocking state not clearly stated, read-out: liver tracer accumulation (ex vivo)), 5.58 ± 0.45 %ID/g; in data set [2] (tumor (UM-SCC-22B xenograft), 3.7 MBq, absence of unlabeled peptide, read-out: tumor uptake (tissue sampling, gamma-counting)), 4.58 ± 0.59 %ID/g; in data set [2] (tumor (UM-SCC-22B xenograft), presence of 500 μg unlabeled peptide, read-out: tumor uptake (tissue sampling, gamma-counting), blocked) it was 0.88 ± 0.35 %ID/g. Besides, the tissue uptake at 0.5 h in data set [5] (liver, 30 min post-injection, read-out: liver uptake (microPET)) turned out to be 11.5 ± 0.78 %ID/g; in data set [5] (tumor (UM-SCC-22B xenograft), UM-SCC-22B tumor, 30 min post injection, read-out: tumor uptake (microPET)) it was 4.72 ± 0.67 %ID/g. Moreover, the “tracer effluxed out of the cells” value in the data set on UM-SCC-22B cells [3] (15 min) was “approximately 47%”. In the data set with UM-SCC-22B cells [3] (end of incubation (60 min)), the “radiotracer remained bound with the cells” value is “about 36%”. In data set [4] (all timepoints (30, 60, 120 min)), the “muscle uptake (microPET)” value was “very low uptake”. For the same compound, the “radioactivity excreted, primarily through the renal pathway” value in data set [4] (within 2 h after injection, dynamic microPET (S1 Fig)) is recorded as “about 65%”. Moreover, the tissue uptake at 1 h in data set [5] (tumor (UM-SCC-22B xenograft), UM-SCC-22B tumor, 60 min post injection) was determined as 3.83 ± 0.55 %ID/g. Moreover, the tissue uptake at 2 h in data set [5] (tumor (UM-SCC-22B xenograft), UM-SCC-22B tumor, 120 min post injection) turned out to be 3.11 ± 0.25 %ID/g. For the same compound, the “fraction of observed uptake due to internalization” value in the data set on UM-SCC-22B cells [6] was “Approximately 2/3”.
